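Briefly, cells in 96-well plates were exposed to five compound concentrations for 48 h, and endpoints were estimated by linear interpolation. At the TGI there is no net growth.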
Experiments:
Experiment in all cases: NCI tumour cell line growth inhibition, 48 h
HS 578T breast = test system: HS 578T breast
SK-MEL-2 melanoma = test system: SK-MEL-2 melanoma
NCI/ADR-RES ovarian = test system: NCI/ADR-RES ovarian
SK-MEL-5 melanoma = test system: SK-MEL-5 melanoma
HCT-116 colon = test system: HCT-116 colon
TK-10 renal = test system: TK-10 renal
K-562 leukemia = test system: K-562 leukemia
MDA-N = test system: MDA-N
RPMI-8226 leukemia = test system: RPMI-8226 leukemia
OVCAR-4 ovarian = test system: OVCAR-4 ovarian
HT29 colon = test system: HT29 colon
SN12C renal = test system: SN12C renal
SK-OV-3 ovarian = test system: SK-OV-3 ovarian
HOP-62 NSCLC = test system: HOP-62 NSCLC
SR leukemia = test system: SR leukemia
BT-549 breast = test system: BT-549 breast
UO-31 renal = test system: UO-31 renal
COLO 205 colon = test system: COLO 205 colon
NCI-H226 lung = test system: NCI-H226 lung
DU-145 prostate = test system: DU-145 prostate
SW-620 colon = test system: SW-620 colon
MOLT-4 leukemia = test system: MOLT-4 leukemia
OVCAR-3 ovarian = test system: OVCAR-3 ovarian
KM12 colon = test system: KM12 colon
CCRF-CEM leukemia = test system: CCRF-CEM leukemia
LOX IMVI melanoma = test system: LOX IMVI melanoma
SF-539 CNS = test system: SF-539 CNS
IGROV1 ovarian = test system: IGROV1 ovarian
UACC-257 melanoma = test system: UACC-257 melanoma
CAKI-1 renal = test system: CAKI-1 renal
HCC-2998 colon = test system: HCC-2998 colon
NCI-H460 lung = test system: NCI-H460 lung
OVCAR-5 ovarian = test system: OVCAR-5 ovarian
PC-3 prostate = test system: PC-3 prostate
HL-60(TB) leukemia = test system: HL-60(TB) leukemia
MDA-MB-435 = test system: MDA-MB-435
SK-MEL-28 melanoma = test system: SK-MEL-28 melanoma
SNB-19 CNS = test system: SNB-19 CNS
OVCAR-8 ovarian = test system: OVCAR-8 ovarian
NCI-H23 lung = test system: NCI-H23 lung
SNB-75 CNS = test system: SNB-75 CNS
ACHN renal = test system: ACHN renal
T-47D breast = test system: T-47D breast
SF-295 CNS = test system: SF-295 CNS
EKVX NSCLC = test system: EKVX NSCLC
SF-268 CNS = test system: SF-268 CNS
U251 CNS = test system: U251 CNS
HCT-15 colon = test system: HCT-15 colon
A498 renal = test system: A498 renal
M14 melanoma = test system: M14 melanoma
786-0 renal = test system: 786-0 renal
MCF7 breast = test system: MCF7 breast
MALME-3M melanoma = test system: MALME-3M melanoma
UACC-62 melanoma = test system: UACC-62 melanoma
MDA-MB-231 breast = test system: MDA-MB-231 breast
RXF 393 renal = test system: RXF 393 renal
A549 NSCLC = test system: A549 NSCLC
HOP-92 NSCLC = test system: HOP-92 NSCLC
NCI-H522 lung = test system: NCI-H522 lung

What does the source list for `Cc1nn(-c2ccccc2)c(C)c1/C=N/NC(=O)c1sc(=S)n(-c2ccc(Cl)cc2)c1N`?
TGI (HS 578T breast): 7.6 µM; TGI (SK-MEL-2 melanoma): > 100 µM; TGI (NCI/ADR-RES ovarian): > 100 µM; TGI (SK-MEL-5 melanoma): 26 µM; TGI (HCT-116 colon): > 100 µM; TGI (TK-10 renal): 14.4 µM; TGI (K-562 leukemia): > 100 µM; TGI (MDA-N): > 100 µM; TGI (RPMI-8226 leukemia): 7.73 µM; TGI (OVCAR-4 ovarian): 95.7 µM; TGI (HT29 colon): > 100 µM; TGI (SN12C renal): > 100 µM; TGI (SK-OV-3 ovarian): > 100 µM; TGI (HOP-62 NSCLC): > 100 µM; TGI (SR leukemia): > 100 µM; TGI (BT-549 breast): > 100 µM; TGI (UO-31 renal): 55.7 µM; TGI (COLO 205 colon): 38.9 µM; TGI (NCI-H226 lung): > 100 µM; TGI (DU-145 prostate): > 100 µM; TGI (SW-620 colon): > 100 µM; TGI (MOLT-4 leukemia): > 100 µM; TGI (OVCAR-3 ovarian): > 100 µM; TGI (KM12 colon): > 100 µM; TGI (CCRF-CEM leukemia): > 100 µM; TGI (LOX IMVI melanoma): 8.73 µM; TGI (SF-539 CNS): > 100 µM; TGI (IGROV1 ovarian): 4.26 µM; TGI (UACC-257 melanoma): > 100 µM; TGI (CAKI-1 renal): 9.68 µM; TGI (HCC-2998 colon): 88.4 µM; TGI (NCI-H460 lung): 95.1 µM; TGI (OVCAR-5 ovarian): > 100 µM; TGI (PC-3 prostate): > 100 µM; TGI (HL-60(TB) leukemia): > 100 µM; TGI (MDA-MB-435): > 100 µM; TGI (SK-MEL-28 melanoma): > 100 µM; TGI (SNB-19 CNS): > 100 µM; TGI (OVCAR-8 ovarian): > 100 µM; TGI (NCI-H23 lung): > 100 µM; TGI (SNB-75 CNS): 5.49 µM; TGI (ACHN renal): > 100 µM; TGI (T-47D breast): > 100 µM; TGI (SF-295 CNS): 5.37 µM; TGI (EKVX NSCLC): 8.91 µM; TGI (SF-268 CNS): > 100 µM; TGI (U251 CNS): > 100 µM; TGI (HCT-15 colon): > 100 µM; TGI (A498 renal): > 100 µM; TGI (M14 melanoma): > 100 µM; TGI (786-0 renal): 59.9 µM; TGI (MCF7 breast): > 100 µM; TGI (MALME-3M melanoma): > 100 µM; TGI (UACC-62 melanoma): 74.1 µM; TGI (MDA-MB-231 breast): > 100 µM; TGI (RXF 393 renal): 6 µM; TGI (A549 NSCLC): > 100 µM

With `CCOc1ccc(N=NC2C(=O)N(C(=O)CC(=O)Nc3ccc(Cl)cc3)N=C2C)cc1` (stereo unspecified) as the molecule, how does the TGI (HS 578T breast) read?
The TGI was over 100 µM.

What about the TGI (SK-MEL-2 melanoma) of the same molecule?
The TGI was over 100 µM.

What about the TGI (HOP-92 NSCLC) of the same molecule?
The TGI was over 100 µM.

And the TGI (NCI/ADR-RES ovarian)?
The TGI was over 100 µM.

What about the TGI (NCI-H522 lung) of the same molecule?
The TGI was over 100 µM.

What about the TGI (SK-MEL-5 melanoma) of the same molecule?
The TGI was over 100 µM.

What about the TGI (HCT-116 colon) of the same molecule?
Its TGI is over 100 µM.

What about the TGI (TK-10 renal) of the same molecule?
Its TGI is over 100 µM.

And the TGI (MDA-N)?
Its TGI is over 100 µM.

And the TGI (RPMI-8226 leukemia)?
Its TGI is over 100 µM.

What about the TGI (OVCAR-4 ovarian) of the same molecule?
The TGI was over 100 µM.

What about the TGI (HT29 colon) of the same molecule?
The TGI was over 100 µM.

What about the TGI (SN12C renal) of the same molecule?
The TGI was over 100 µM.

And the TGI (SK-OV-3 ovarian)?
The TGI was over 100 µM.

And the TGI (HOP-62 NSCLC)?
Its TGI is over 100 µM.

What about the TGI (SR leukemia) of the same molecule?
The TGI was over 100 µM.

What about the TGI (BT-549 breast) of the same molecule?
The TGI was over 100 µM.

What about the TGI (UO-31 renal) of the same molecule?
The TGI was over 100 µM.

What about the TGI (COLO 205 colon) of the same molecule?
Its TGI is over 100 µM.

What about the TGI (NCI-H226 lung) of the same molecule?
Its TGI is over 100 µM.

What about the TGI (DU-145 prostate) of the same molecule?
Its TGI is over 100 µM.

And the TGI (SW-620 colon)?
The TGI was over 100 µM.

And the TGI (OVCAR-3 ovarian)?
Its TGI is over 100 µM.

What about the TGI (KM12 colon) of the same molecule?
The TGI was over 100 µM.

And the TGI (CCRF-CEM leukemia)?
Its TGI is over 100 µM.

What about the TGI (LOX IMVI melanoma) of the same molecule?
Its TGI is over 100 µM.

And the TGI (SF-539 CNS)?
The TGI was over 100 µM.

And the TGI (IGROV1 ovarian)?
Its TGI is over 100 µM.

And the TGI (CAKI-1 renal)?
Its TGI is over 100 µM.

What about the TGI (HCC-2998 colon) of the same molecule?
Its TGI is over 100 µM.

What about the TGI (NCI-H460 lung) of the same molecule?
The TGI was over 100 µM.

What about the TGI (OVCAR-5 ovarian) of the same molecule?
The TGI was over 100 µM.

What about the TGI (PC-3 prostate) of the same molecule?
The TGI was over 100 µM.

And the TGI (HL-60(TB) leukemia)?
Its TGI is over 100 µM.

What about the TGI (MDA-MB-435) of the same molecule?
Its TGI is over 100 µM.

What about the TGI (SK-MEL-28 melanoma) of the same molecule?
The TGI was over 100 µM.

What about the TGI (OVCAR-8 ovarian) of the same molecule?
Its TGI is over 100 µM.

And the TGI (NCI-H23 lung)?
Its TGI is over 100 µM.

What about the TGI (SNB-75 CNS) of the same molecule?
Its TGI is over 100 µM.

And the TGI (ACHN renal)?
The TGI was over 100 µM.

And the TGI (T-47D breast)?
Its TGI is over 100 µM.

What about the TGI (SF-295 CNS) of the same molecule?
The TGI was over 100 µM.

What about the TGI (EKVX NSCLC) of the same molecule?
The TGI was over 100 µM.

And the TGI (SF-268 CNS)?
The TGI was over 100 µM.

And the TGI (U251 CNS)?
Its TGI is over 100 µM.

What about the TGI (A498 renal) of the same molecule?
The TGI was over 100 µM.

And the TGI (M14 melanoma)?
The TGI was over 100 µM.

And the TGI (786-0 renal)?
Its TGI is over 100 µM.

And the TGI (MCF7 breast)?
The TGI was over 100 µM.

And the TGI (MALME-3M melanoma)?
The TGI was over 100 µM.

What about the TGI (UACC-62 melanoma) of the same molecule?
Its TGI is over 100 µM.

What about the TGI (MDA-MB-231 breast) of the same molecule?
Its TGI is over 100 µM.

What about the TGI (RXF 393 renal) of the same molecule?
The TGI was over 100 µM.

And the TGI (A549 NSCLC)?
Its TGI is over 100 µM.

— PubChem BioAssay (NCI)
